Measured values as given in patent US20020137929A1, “1 - (3-heterocyclylphenyl) isothiourea, -isourea, -guanidine and -amidine herbicidal agents” (Intellectual Property Department, BASF Aktiengesellschaft, priority 1998, published 2002).

Legend:
GALAP (Galium) [1] = assay: Postemergence herbicidal evaluation; type: in vivo, Galium aparine; settings: for GALAP herbicidal rating / Herbicidal rating GALAP: postemergence
How it was run: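 Each compound, dispersed in an acetone/water mix (50/50) carrying 0.5% TWEEN 20, is nozzle-sprayed at 40 psi on approximately two-week-old seedlings at about 0.0156–0.500 kg/ha. Plants are assessed 4–5 weeks afterward on a 0–9 scale relative to control; duplicate tests are averaged.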

ABUTH (Velvetleaf) = assay: Postemergence herbicidal evaluation; type: in vivo, Abutilon theophrasti; settings: for ABUTH herbicidal rating / Herbicidal rating ABUTH: postemergence
Procedure: In the tests, seedling plants are grown in jiffy flats for about two weeks. The test compounds are dispersed in 50/50 acetone/water mixtures containing 0.5% TWEEN®20, a polyoxyethylene sorbitan monolaurate surfactant of Atlas Chemical Industries, in sufficient quantities to provide the equivalent of about 0.0156 kg to 0.500 kg per hectare of active compound when applied to the plants through a spray nozzle operating at 40 psi for a predetermined time. After spraying, the plants are placed on greenhouse benches and are cared for in accordance with conventional greenhouse procedures. From four to five weeks after treatment, the seedling plants are examined and rated according to the rating system set forth below. Where more than one test is involved for a given compound, the data are averaged.
Plant species employed in these evaluations are reported by header abbreviation, common name and scientific name.
(§1) Results of herbicide evaluation are expressed on a rating scale (0-9). The scale is based upon a visual observation of plant stand, vigor, malformation, size, chlorosis and overall plant appearance as compared with a control.

GALAP (Galium) [2] = assay: Preemergence herbicidal evaluation; type: in vivo, Galium aparine; settings: rated 4-5 weeks after treatment
Text: as §1
The preemergence herbicidal activity of the test compounds of the present invention is exemplified by the following tests in which the seeds of a variety of monocotyledonous and dicotyledonous plants are separately mixed with potting soil and planted on top of approximately one inch of soil in separate pint cups. After planting, the cups are sprayed with the selected aqueous acetone solution containing test compound in sufficient quantity to provide the equivalent of about 0.0156 to 0.500 kg per hectare of test compound per cup. The treated cups are then placed on greenhouse benches, watered and cared for in accordance with conventional greenhouse procedures. From four to five weeks after treatment, the tests are terminated and each cup is examined and rated according to the rating system provided in Example 37.
The compounds evaluated are reported by compound number given in Example 37.

SMILES | GALAP herbicidal rating (GALAP (Galium) [1]; rate 0.0158 kg/ha) | GALAP herbicidal rating (GALAP (Galium) [1]; rate 0.0315 kg/ha) | GALAP herbicidal rating (GALAP (Galium) [1]; rate 0.0630 kg/ha) | ABUTH herbicidal rating (ABUTH (Velvetleaf); rate 0.0158 kg/ha) | ABUTH herbicidal rating (ABUTH (Velvetleaf); rate 0.0315 kg/ha) | ABUTH herbicidal rating (ABUTH (Velvetleaf); rate 0.0630 kg/ha) | Preemergence herbicidal rating GALAP (GALAP (Galium) [2]; rate 0.0156 kg/ha) | Preemergence herbicidal rating GALAP (GALAP (Galium) [2]; rate 0.0313 kg/ha) | Preemergence herbicidal rating GALAP (GALAP (Galium) [2]; rate 0.0625 kg/ha) | Preemergence herbicidal rating GALAP (GALAP (Galium) [2]; rate 0.1250 kg/ha) | Preemergence herbicidal rating GALAP (GALAP (Galium) [2]; rate 0.2500 kg/ha) | other results
COC(=O)C(Cc1ccc(Cl)cc1)N1C(=O)CSC1=Nc1cc(-n2c(=O)cc(C(F)(F)F)n(C)c2=O)c(F)cc1Cl (racemic) [Compound 77, Methyl α-(p-chlorobenzyl)-2-{{2-chloro-5-[3,6-dihydro-3-methyl-2,6-dioxo-4-(trifluoromethyl)-1(2H)-pyrimidinyl]-4-fluorophenyl}imino}-4-oxo-3-thiazolidineacetate, DL-] | 1.0 | 1.0 | 7.0 | 9.0 | 9.0 | 9.0 | 0.0 | 0.0 | 0.0 | 1.0 | 1.0 | 
CCOC(=O)CN1C(=O)C(Cc2ccccc2OC)SC1=Nc1cc(-n2c(=O)cc(C(F)(F)F)n(C)c2=O)c(F)cc1Cl (centres unmarked) [Compound 37, Ethyl 2-{{2-chloro-5-[3,6-dihydro-3-methyl-2,6-dioxo-4-(trifluoromethyl)-1(2H)-pyrimidinyl]-4-fluorophenyl}imino}-5-(o-methoxybenzyl)-4-oxo-3-thiazolidineacetate] |  |  |  |  |  |  |  |  |  | 0.0 | 9.0 | Postemergence herbicidal rating GALAP (GALAP (Galium) [1]; Rate 0.0158 kg/ha): 1.0; Postemergence herbicidal rating GALAP (GALAP (Galium) [1]; Rate 0.0315 kg/ha): 3.0; Postemergence herbicidal rating GALAP (GALAP (Galium) [1]; Rate 0.0630 kg/ha): 4.0; Postemergence herbicidal rating ABUTH (ABUTH (Velvetleaf); Rate 0.0158 kg/ha): 9.0; Postemergence herbicidal rating ABUTH (ABUTH (Velvetleaf); Rate 0.0315 kg/ha): 9.0; Postemergence herbicidal rating ABUTH (ABUTH (Velvetleaf); Rate 0.0630 kg/ha): 9.0
C[C@H](C(=O)O)N1C(=O)CSC1=Nc1cc(-n2c(=O)cc(C(F)(F)F)n(C)c2=O)c(F)cc1Cl [Compound 70, 2-{{2-Chloro-5-[3,6-dihydro-3-methyl-2,6-dioxo-4-(trifluoromethyl)-1(2H)-pyrimidinyl]-4-fluoro-phenyl}imino}-α-methyl-4-oxo-3-thiazolidineacetic acid, D-] | 0.0 | 0.0 | 3.0 | 1.0 | 6.0 | 9.0 | 0.0 | 0.0 | 0.0 | 0.0 | 0.0 | 
COC(=O)[C@@H](Cc1ccccc1)N1C(=O)CSC1=Nc1cc(-n2c(=O)cc(C(F)(F)F)n(C)c2=O)c(F)cc1Cl [Compound 74, Methyl α-benzyl-2-{{2-chloro-5-[3,6-dihydro-3-methyl-2,6-dioxo-4-(trifluoromethyl)-1(2H)-pyrimidinyl]-4-fluorophenyl}imino}-4-oxo-3-thiazolidineacetate, D-] | 1.0 | 4.0 | 9.0 | 9.0 | 9.0 | 9.0 | 0.0 | 0.0 | 0.0 | 0.0 | 9.0 | 
C[C@@H](C(=O)OC(C)(C)C)N1C(=O)CSC1=Nc1cc(-n2c(=O)cc(C(F)(F)F)n(C)c2=O)c(F)cc1Cl [Compound 75, tert-Butyl 2-{{2-chloro-5-[3,6-dihydro-3-methyl-2,6-dioxo-4-(trifluoromethyl)-1(2H)-pyrimidinyl]-4-fluorophenyl}imino}-α-methyl-4-oxo-3-thiazolidineacetate, L-] | 1.0 | 2.0 | 5.0 | 9.0 | 9.0 | 9.0 | 0.0 | 0.0 | 0.0 | 0.0 | 0.0 | 
CCOC(=O)[C@H](Cc1ccccc1)N1C(=O)CSC1=Nc1cc(-n2c(=O)cc(C(F)(F)F)n(C)c2=O)c(F)cc1Cl [Compound 80, Ethyl α-benzyl-2-{{2-chloro-5-[3,6-dihydro-3-methyl-2,6-dioxo-4-(trifluoromethyl)-1(2H)-pyrimidinyl]-4-fluorophenyl}imino}-4-oxo-3-thiazolidineacetate, L-] | 2.0 | 4.0 | 5.0 | 9.0 | 9.0 | 9.0 | 0.0 | 0.0 | 0.0 | 4.0 | 4.0 | 
COC(=O)COC(=O)CN1C(=O)CSC1=Nc1cc(-n2c(=O)cc(C(F)(F)F)n(C)c2=O)c(F)cc1Cl [Compound 108, 2-{{2-Chloro-5-[3,6-dihydro-3-methyl-2,6-dioxo-4-(trifluoromethyl)-1(2H)-pyrimidinyl]-4-fluorophenyl}imino}-4-oxo-3-thiazolidineacetic acid, ester with methyl glycolate] |  |  |  |  |  |  | 1.0 | 2.0 | 6.0 | 7.0 | 9.0 | Herbicidal rating GALAP (GALAP (Galium) [1]; rate 0.0158 kg/ha): 1.0; Herbicidal rating GALAP (GALAP (Galium) [1]; rate 0.0315 kg/ha): 1.0; Herbicidal rating GALAP (GALAP (Galium) [1]; rate 0.0630 kg/ha): 3.0; Herbicidal rating ABUTH (ABUTH (Velvetleaf); rate 0.0158 kg/ha): 9.0; Herbicidal rating ABUTH (ABUTH (Velvetleaf); rate 0.0315 kg/ha): 9.0; Herbicidal rating ABUTH (ABUTH (Velvetleaf); rate 0.0630 kg/ha): 9.0
CC(C)OC(=O)CN1C(=O)CSC1=Nc1cc(-n2c(=O)cc(C(F)(F)F)n(C)c2=O)c(F)cc1Cl [Compound 110] |  |  |  |  |  |  | 0.0 | 0.0 | 0.0 | 0.0 | 2.0 | Herbicidal rating GALAP (GALAP (Galium) [1]; rate 0.0158 kg/ha): 1.0; Herbicidal rating GALAP (GALAP (Galium) [1]; rate 0.0315 kg/ha): 3.0; Herbicidal rating GALAP (GALAP (Galium) [1]; rate 0.0630 kg/ha): 4.0; Herbicidal rating ABUTH (ABUTH (Velvetleaf); rate 0.0158 kg/ha): 9.0; Herbicidal rating ABUTH (ABUTH (Velvetleaf); rate 0.0315 kg/ha): 9.0; Herbicidal rating ABUTH (ABUTH (Velvetleaf); rate 0.0630 kg/ha): 9.0
Cn1c(C(F)(F)F)cc(=O)n(-c2cc(N=C3SCC(=O)N3CC(=O)OC3CCCC3)c(Cl)cc2F)c1=O [Compound 120, Cyclopentyl 2-{{2-chloro-5-[3,6-dihydro-3-methyl-2,6-dioxo-4-(trifluoromethyl)-1(2H)-pyrimidinyl]-4-fluorophenyl}imino}-4-oxo-3-thiazolidineacetate] |  |  |  |  |  |  | 0.0 | 0.0 | 0.0 | 0.0 | 0.0 | Herbicidal rating GALAP (GALAP (Galium) [1]; rate 0.0156 kg/ha): 2.0; Herbicidal rating GALAP (GALAP (Galium) [1]; rate 0.0313 kg/ha): 3.0; Herbicidal rating GALAP (GALAP (Galium) [1]; rate 0.0625 kg/ha): 3.0; Herbicidal rating ABUTH (ABUTH (Velvetleaf); rate 0.0156 kg/ha): 9.0; Herbicidal rating ABUTH (ABUTH (Velvetleaf); rate 0.0313 kg/ha): 9.0; Herbicidal rating ABUTH (ABUTH (Velvetleaf); rate 0.0625 kg/ha): 9.0
CC(C)COC(=O)CN1C(=O)CSC1=Nc1cc(-n2c(=O)cc(C(F)(F)F)n(C)c2=O)c(F)cc1Cl [Compound 121, Isobutyl 2-{{2-chloro-5-[3,6-dihydro-3-methyl-2,6-dioxo-4-(trifluoromethyl)-1(2H)-pyrimidinyl]-4-fluorophenyl}imino}-4-oxo-3-thiazolidineacetate] |  |  |  |  |  |  | 0.0 | 0.0 | 0.0 | 5.0 | 9.0 | Herbicidal rating GALAP (GALAP (Galium) [1]; rate 0.0156 kg/ha): 0.0; Herbicidal rating GALAP (GALAP (Galium) [1]; rate 0.0313 kg/ha): 0.0; Herbicidal rating GALAP (GALAP (Galium) [1]; rate 0.0625 kg/ha): 3.0; Herbicidal rating ABUTH (ABUTH (Velvetleaf); rate 0.0156 kg/ha): 9.0; Herbicidal rating ABUTH (ABUTH (Velvetleaf); rate 0.0313 kg/ha): 9.0; Herbicidal rating ABUTH (ABUTH (Velvetleaf); rate 0.0625 kg/ha): 9.0
